Tests used:
[1] = test system: incorporation of azido sugar onto proteins in COS-7 cells; experiment: Metabolic feeding and Staudinger ligation with biotin phosphine, streptavidin-HRP blot; assay type: cell-based, African green monkey; conditions: 50 μM, 24 h
Description: (A) Structures of the molecules used or generated during the chemoselective ligation study (X═O or S as indicated, R═H or Ac as indicated). (B) Western blots of COS-7 cell lysates administered specified agents at 50 μM for 24 h; vehicle only (C), Ac-GlcNAz or Ac-5SGlcNAz (41). Cells were harvested and then underwent the Staudinger ligation with biotin phosphine. Blots are probed with (from top to bottom) streptavidin-HRP, anti O-GlcNAc (CTD110.6) antibody and anti-actin antibody. (C) Western blot of immunoprecipitated nup62 from cell lysates following vehicle (C), 50 μM Ac-GlcNAz or Ac-5SGlcNAz (41) treatment for 24 h. Following immunoprecipitation, nup62 was incubated with buffer (−) or with BtGH84 (+) for 2 h to remove O-GlcNAc, and then underwent the Staudinger ligation with biotin phosphine. Blots are probed with streptavidin-HRP. […]
To probe the possibility that 5SGlcNAc is being incorporated onto proteins, we used a metabolic feeding and chemoselective ligation strategy using 2-azidoacetamido-2-deoxy-D-glucopyranose (GlcNAz), which can be assimilated by the HBP to form uridine diphospho-N-azidoacetylglucosamine (UDP-GlcNAz) and then be installed onto proteins as O-GlcNAz^9. […] Accordingly, we evaluated whether 2-azidoacetamido-2-deoxy-5-thio-D-glucopyranose (5SGlcNAz) is incorporated onto proteins to determine whether 5SGlcNAc might be transferred onto proteins in cells. […]

[2] = test system: EMEG32 heterozygous mouse embryonic fibroblast cells; experiment: Cell proliferation growth curves over 5 days and western blot, EMEG32 heterozygous fibroblasts; assay type: cell-based; conditions: EMEG32 heterozygotes, 50 μM, 5 days
Description: (A) Cell proliferation curves over the course of 5 days for CHO cells following no (circles), 50 μM Ac-GlcNAc (squares) or 50 μM Ac-5SGlcNAc (triangles) treatment. The error bars indicate the deviation from the mean for triplicate measurements. […] Upper panel, probed with anti-O-GlcNAc antibody (CTD110.6); lower panel, probed with anti-actin antibody. (B) Cell proliferation curves over the course of 5 days for EMEG heterozygous mouse embryonic fibroblast cells following no (circles), 50 μM Ac-GlcNAc (squares) or 50 μM Ac-5SGlcNAc (triangles) treatment. The error bars indicate the deviation from the mean for triplicate measurements. […] Upper panel, probed with anti-O-GlcNAc antibody (CTD110.6); lower panel, probed with anti-actin antibody. (C) Western blots of CHO cell lysates following no (C) or Ac-5SGlcNAc administration at 50 μM for 4 days. Probed with (from top to bottom) anti-Spl antibody, anti O-GlcNAc (CTD110.6) antibody and anti-actin antibody. Full blot of the anti-Sp 1 is shown in panel (d). (D) Western blots of CHO cell lysates following no (C) or Ac-5SGlcNAc administration at 50 μM for 4 days. The full blot probed with anti-Spl antibody is shown. (E) Western blots of COS-7 cell lysates following no (C) or 50 μM Ac-5SGlcNAc treatment for 24 h. Following treatment, the media was replaced with no inhibitor, and cells were harvested at the time points indicated (between 0 and 24 h). Upper panel, probed with anti-O-GlcNAc antibody (CTD110.6); lower panel, probed with anti-actin antibody.
Cellular responses to Ac-5SGlcNAc (9) treatment and consequent decreases in O-GlcNAc levels were evaluated. […] We quantitatively evaluated cell proliferation and established growth curves over the course of 5 days in both CHO and EMEG32 heterozygous mouse embryonic fibroblast cells treated with 50 μM Ac-5SGlcNAc (9), 50 μM Ac-GlcNAc (G), or vehicle (FIGS. 5A-B).

[3] = test system: O-GlcNAc levels in COS-7 cells; experiment: Western blot of O-GlcNAc levels (CTD110.6) in treated COS-7 cells; assay type: cell-based, African green monkey; conditions: 50 μM, 24 h
Description: Cell culture: Cells were grown in an incubator at 37° C. and 5% CO2 atmosphere. Media and serum were purchased from Invitrogen. COS-7 cells were cultured in Dulbecco's modified Eagle's medium (DMEM) with 5% fetal bovine serum (FBS), and were typically 80-100% confluent prior to experimentation. HepG2, SK-N-SH, and EMEG32^−/− cells were cultured in Dulbecco's modified Eagle's medium (DMEM) with 5% fetal bovine serum (FBS), CHO cells in DMEMF-12 with 5% FBS and PC12 cells in DMEM with 5% FBS and 5% horse serum. Prior to experimentation, PC12 cells were plated at a density of 3-4×10^5 cells10 cm plate, which had been pre-treated with 5 μgcm^2 rat tail collagen (BD Biosciences). Cells were differentiated in DMEM containing 1% horse serum, in the presence of 2.5S mouse nerve growth factor (Chemicon) at a final concentration of 25 ng mL^−1, for 4-5 days prior to treatment. Other cell lines were 80-100% confluent prior to treatment. Following treatment with (Ac-)5SGlcNAc, using various conditions, cells were washed gently with PBS, lysed in SDS loading buffer and boiled for 10 minutes. Mouse hybridoma cells (obtained from the Developmental Studies Hybridoma Bank; antibody E7 for (:1-tubulin) were cultured in RPMI40 with 10% FBS. Prior to treatment with Ac-5SGlcNAc, hybridoma cells were cultured for 2 days in RPMI40 with 5% FBS, and during treatment in RPMI40 with no serum. Cells were collected, centrifuged (800 x g, 5 min) and the supernatant removed. Cells were washed with PBS, centrifuged, the pellet resuspended in SDS loading buffer and boiled. The supernatant after centrifugation, which contained the IgG antibody produced by the cells, was used for immunoprecipitation (see below for details).
Westernlectin blots: Samples were run on 10% SDS polyacrylamide gels and transferred onto nitrocellulose membranes (Biorad). Membranes were blocked for 1 h in PBS containing 0.1% Tween-20 (PBS-T) containing 1% (unless otherwise stated) bovine serum albumin (BSA), and probed with the appropriate primary antibody or lectin in 1% BSA in PBS-T overnight at 4° C. Blots were washed for 1 hr with PBS-T, and blocked for a further 30 min with 1% BSA in PBS-T at room temperature. They were then probed with the appropriate horseradish peroxidise (HRP)-conjugated secondary antibodyprobe in 1% BSA in PBS-T at room temperature for 1 h, followed by washing in PBS-T for 1 h. Blots were developed with SuperSignal West Pico Chemiluminescent Substrate (Pierce) and exposed to CL-XPosure film (Pierce). Densitometry was performed using ImageQuant 5.2 (Molecular Dynamics), and fits to the data were made using GRAFIT^41.
Antibodieslectins: O-GlcNAc levels were assessed primarily using CTD110.6 (Covance), but RL2 (Abcam) and HGAC85 (Abcam) were also tested. Actin was probed using JLA20 (Developmental Studies Hybridoma Bank). OGA levels were assessed using a polyclonal anti-OGA antibody which was a kind gift from Dr. Gerald Hart and OGT levels using H-300 (Santa Cruz Biotechnology). nup62 was probed using mAb 414 (Covance). Secondary antibodies employed (HRP-conjugated goat anti-mouse IgM, goat anti-mouse IgG, goat anti-chicken IgY and goat anti-rabbit IgG) were obtained from Santa Cruz Biotechnology. Biotinylated-ConA, PHA-L, SNA and MAA were purchased from EY Laboratories, and biotinylated-GNA from Vector Laboratories. HRP-conjugated streptavidin (Pierce) was used as a probe for the biotinylated lectins.
Analogues (9, 10, 17-41) were tested in COS-7 cells, dosed at a final concentration of 50 μM in DMSO for 24 h. Following treatment, cells were washed with PBS, harvested into SDS-PAGE loading buffer and analyzed by western blot using standard procedures; blots were probed with the anti-O-GlcNAc antibody (CTD 110.6).

[4] = test system: O-GlcNAc levels in mice tissues; experiment: O-GlcNAc levels in mouse tissues after intraperitoneal dosing; assay type: in vivo; conditions: 300 mg/kg intraperitoneally, 16 hours
Description: Ac-5SGlcNAc 9 and the deprotected analogue with the hexyl substituent at the C2 position 28 have been analyzed for effectiveness at decreasing O-GlcNAc levels in mice. Pilot studies were conducted with mice dosed in triplicate with either compound or vehicle alone. Compounds were dosed at 300 mg/kg intraperitoneally using 75% DMSO as vehicle for delivery of 9 and phosphate-buffered saline (PBS) for delivery of 28. Mice were euthanized using a CO2 chamber after 16 hours exposure to either compound, and tissues (liver, lung, heart, kidney, spleen, pancreas, brain, blood, fat and muscle) harvested and flash frozen in liquid nitrogen. Frozen tissues were ground using a pestle and mortar, and resuspended in cell lysis buffer (50 mM NaH2PO4, 150 mM NaCl, 0.1% SDS, 1% NP-40, 0.25% sodium deoxycholate, 1 mM EDTA, 30 mM sodium fluoride, 30 mM β-glycerophosphate, 5 mM sodium pyrophosphate, 1 mM Thiamet-G, protease inhibitor cocktail (Roche)) at a concentration of 100 mg tissue1 mL buffer prior to homogenization. Homogenates were centrifuged at 13,000 rpm for 20 min, the supernatant removed, added to 2×SDS-PAGE loading buffer and boiled for […]. SDS-PAGE and western blots were performed using standard procedures. Blots were probed using anti-O-GlcNAc antibody (CTD110.6, Santa Cruz Biotechnology) and anti-actin antibody for a loading control.

Compound	streptavidin signal after Staudinger ligation (accumulation of azido sugar on proteins) [1]	growth rate [2]	effect on O-GlcNAc levels at single dose [3]	extent of decrease of O-GlcNAc levels relative to parent compound 9 [3]	O-GlcNAc levels in tissues [4]
2-azidoacetamido-2-deoxy-5-thio-D-glucopyranose [Compound 5SGlcNAz]	does not accumulate on proteins to any measurable level	–	–	–	–
CC(=O)N[C@H]1[C@H](OC(C)=O)O[C@H](COC(C)=O)[C@@H](OC(C)=O)[C@@H]1OC(C)=O [Ac-GlcNAc, reference compound]	–	indistinguishable but were both lower than vehicle treated cells	–	–	–
CC(=O)OC[C@H]1O[C@H](OC(C)=O)[C@H](NC(=O)CN=[N+]=[N-])[C@@H](OC(C)=O)[C@@H]1OC(C)=O [Ac-GlcNAz, 1,3,4,6-tetra-O-acetyl-2-azidoacetamido-2-deoxy-ot-D-glucopyranose, reference compound]	Only proteins from cells treated with Ac-GlcNAz revealed any signal	–	only 5SGlcNAz decreased O-GlcNAc levels	–	–
CCCCCC(=O)NC1C(O)SC(CO)C(O)C1O [Compound 28, N-Hexonoyl-a-D-5-thio-glucosamine]	–	–	decreased O-GlcNAc levels in cells	comparable extent to the parent compound	effective at decreasing O-GlcNAc levels during the 16 hour dosing period in the liver, lung, heart, kidney, spleen, pancreas, fat and muscle

Source: patent US20150259371A1, “METHODS AND COMPOUNDS FOR INHIBITING GLYCOSYLTRANSFERASES” (SIMON FRASER UNIVERSITY, priority 2010, published 2015)
